Data from ChEMBL document CHEMBL3734692, “Design and synthesis of 2-oxindole based multi-targeted inhibitors of PDK1/Akt signaling pathway for the treatment of glioblastoma multiforme” (Eur J Med Chem, 2015).
Calls of active or inactive are those of the source. The rule behind the calls is not given here.

How the values were obtained:
[1] = Induction of apoptosis in human GSC derived from ANGM-CSS cells assessed as live cells at 1 uM after 7 days by annexin V-FITC/7-AAD dual staining based cell analysis (reference value: 91.88%); type: functional
[2] = Induction of apoptosis in human GSC derived from ANGM-CSS cells assessed as early apoptotic cells at 1 uM after 7 days by annexin V-FITC/7-AAD dual staining based cell analysis (reference value: 3.29%); type: functional
[3] = target: PI3-kinase p110-alpha/p85-alpha (Homo sapiens) (UniProt P27986+P42336); experiment: Inhibition of PIK3CA/PIK3R1 (unknown origin) at 1 uM by selectscreen kinase profiling assay in presence of ATP; type: protein-complex assay
[4] = Cell cycle arrest in human ANGM-CSS cells assessed as accumulation at G2/M phase at 1 uM after 7 days by based fluorescent reagent based cell analysis (reference value: 23.8%); type: functional
[5] = target: Dual specificity mitogen-activated protein kinase kinase 2 (Homo sapiens) (UniProt P36507); experiment: Inhibition of MEK2 (unknown origin) at 1 uM by selectscreen kinase profiling assay in presence of ATP
[6] = Cell cycle arrest in human GSC derived from ANGM-CSS cells assessed as accumulation at G0/G1 phase at 1 uM after 7 days by based fluorescent reagent based cell analysis (reference value: 71.4%); type: functional
[7] = target: Dual specificity protein kinase CLK1 (Homo sapiens) (UniProt P49759); experiment: Inhibition of CLK1 (unknown origin) at 1 uM by selectscreen kinase profiling assay in presence of ATP
[8] = target: Serine/threonine-protein kinase Chk2 (Homo sapiens) (UniProt O96017); experiment: Inhibition of CHEK2 (unknown origin) at 1 uM by selectscreen kinase profiling assay in presence of ATP
[9] = Induction of apoptosis in human GSC derived from ANGM-CSS cells assessed as dead cells at 1 uM after 7 days by annexin V-FITC/7-AAD dual staining based cell analysis (reference value: 2.33%); type: functional
[10] = target: Serine/threonine-protein kinase MRCK alpha (Homo sapiens) (UniProt Q5VT25); experiment: Inhibition of MRCKalpha (unknown origin) at 1 uM by selectscreen kinase profiling assay in presence of ATP
[11] = Antiproliferative activity against human U118MG cells assessed as inhibition of cell growth after 144 hrs by WST1 assay; type: functional; details: U-118-MG
ANGM-CSS [12] = experiment: Antiproliferative activity against human GSC derived from ANGM-CSS cells by MTS assay; type: functional, cell-based; details: TDE = time-dependent effect
ANGM-CSS [13] = experiment: Induction of human GSC differentiation derived from ANGM-CSS cells assessed as down regulation of nestin mRNA expression at 1 uM after 7 days by RT-PCR analysis; type: functional, cell-based
[14] = target: Serine/threonine-protein kinase PAK 6 (Homo sapiens) (UniProt Q9NQU5); experiment: Inhibition of PAK6 (unknown origin) at 1 uM by selectscreen kinase profiling assay in presence of ATP
ANGM-CSS [15] = experiment: Induction of human GSC differentiation derived from ANGM-CSS cells assessed as up regulation of MAP2 mRNA expression at 1 uM after 7 days by RT-PCR analysis; type: functional, cell-based
[16] = Cell cycle arrest in human ANGM-CSS cells assessed as accumulation at S phase at 1 uM after 7 days by based fluorescent reagent based cell analysis (reference value: 4.1%); type: functional
[17] = system: RAF proto-oncogene serine/threonine-protein kinase (Homo sapiens), P04049 [Y340D,Y341D]; experiment: Inhibition of RAF1 Y340D/Y341D double mutant (unknown origin) at 1 uM by selectscreen kinase profiling assay in presence of ATP
[18] = target: RAC-beta serine/threonine-protein kinase (Homo sapiens) (UniProt P31751); experiment: Inhibition of AKT2 (unknown origin) at 1 uM by selectscreen kinase profiling assay in presence of ATP
[19] = target: Phosphatidylinositol 4,5-bisphosphate 3-kinase catalytic subunit gamma isoform (Homo sapiens) (UniProt P48736); experiment: Inhibition of PIK3Cgamma (unknown origin) at 1 uM by selectscreen kinase profiling assay in presence of ATP
[20] = target: Serine/threonine-protein kinase MARK1 (Homo sapiens) (UniProt Q9P0L2); experiment: Inhibition of MARK1 (unknown origin) at 1 uM by selectscreen kinase profiling assay in presence of ATP
[21] = target: Serine/threonine-protein kinase B-raf (Homo sapiens) (UniProt P15056); experiment: Inhibition of BRAF (unknown origin) at 1 uM by selectscreen kinase profiling assay in presence of ATP
[22] = target: Glycogen synthase kinase-3 beta (Homo sapiens, UniProt P49841); experiment: Inhibition of GSK3beta (unknown origin) at 1 uM by selectscreen kinase profiling assay in presence of ATP
[23] = Cell cycle arrest in human ANGM-CSS cells assessed as accumulation at G0/G1 phase at 1 uM after 7 days by based fluorescent reagent based cell analysis (reference value: 60.7%); type: functional
[24] = target: Ribosomal protein S6 kinase beta-1 (Homo sapiens) (UniProt P23443); experiment: Inhibition of RPS6KB1 (unknown origin) at 1 uM by selectscreen kinase profiling assay in presence of ATP
ANGM-CSS [25] = experiment: Antiproliferative activity against human ANGM-CSS cells assessed as inhibition of cell growth after 72 to 144 hrs by WST1 assay; type: functional, cell-based
[26] = target: Mitogen-activated protein kinase 8 (Homo sapiens) (UniProt P45983); experiment: Inhibition of JNK1 (unknown origin) at 1 uM by selectscreen kinase profiling assay in presence of ATP
[27] = target: Rho-associated protein kinase 1 (Homo sapiens) (UniProt Q13464); experiment: Inhibition of ROCK1 (unknown origin) at 1 uM by selectscreen kinase profiling assay in presence of ATP
[28] = target: Serine/threonine-protein kinase Chk1 (Homo sapiens) (UniProt O14757); experiment: Inhibition of CHEK1 (unknown origin) at 1 uM by selectscreen kinase profiling assay in presence of ATP
[29] = target: Serine/threonine-protein kinase Chk1 (Homo sapiens, UniProt O14757); experiment: Inhibition of CHK1 (unknown origin) in presence of 10 uM ATP incubated for 1 hr by Z'Lyte assay
[30] = target: Mitogen-activated protein kinase 1 (Homo sapiens) (UniProt P28482); experiment: Inhibition of ERK2 (unknown origin) at 1 uM by selectscreen kinase profiling assay in presence of ATP
ANGM-CSS [31] = experiment: Induction of human GSC differentiation derived from ANGM-CSS cells assessed as up regulation of GFAP mRNA expression at 1 uM after 7 days by RT-PCR analysis; type: functional, cell-based
[32] = target: Protein kinase C zeta type (Homo sapiens) (UniProt Q05513); experiment: Inhibition of PKCzeta (unknown origin) at 1 uM by selectscreen kinase profiling assay in presence of ATP

Sequence of Phosphatidylinositol 4,5-bisphosphate 3-kinase catalytic subunit gamma isoform (Homo sapiens) (P48736 whole entry, looked up, canonical isoform): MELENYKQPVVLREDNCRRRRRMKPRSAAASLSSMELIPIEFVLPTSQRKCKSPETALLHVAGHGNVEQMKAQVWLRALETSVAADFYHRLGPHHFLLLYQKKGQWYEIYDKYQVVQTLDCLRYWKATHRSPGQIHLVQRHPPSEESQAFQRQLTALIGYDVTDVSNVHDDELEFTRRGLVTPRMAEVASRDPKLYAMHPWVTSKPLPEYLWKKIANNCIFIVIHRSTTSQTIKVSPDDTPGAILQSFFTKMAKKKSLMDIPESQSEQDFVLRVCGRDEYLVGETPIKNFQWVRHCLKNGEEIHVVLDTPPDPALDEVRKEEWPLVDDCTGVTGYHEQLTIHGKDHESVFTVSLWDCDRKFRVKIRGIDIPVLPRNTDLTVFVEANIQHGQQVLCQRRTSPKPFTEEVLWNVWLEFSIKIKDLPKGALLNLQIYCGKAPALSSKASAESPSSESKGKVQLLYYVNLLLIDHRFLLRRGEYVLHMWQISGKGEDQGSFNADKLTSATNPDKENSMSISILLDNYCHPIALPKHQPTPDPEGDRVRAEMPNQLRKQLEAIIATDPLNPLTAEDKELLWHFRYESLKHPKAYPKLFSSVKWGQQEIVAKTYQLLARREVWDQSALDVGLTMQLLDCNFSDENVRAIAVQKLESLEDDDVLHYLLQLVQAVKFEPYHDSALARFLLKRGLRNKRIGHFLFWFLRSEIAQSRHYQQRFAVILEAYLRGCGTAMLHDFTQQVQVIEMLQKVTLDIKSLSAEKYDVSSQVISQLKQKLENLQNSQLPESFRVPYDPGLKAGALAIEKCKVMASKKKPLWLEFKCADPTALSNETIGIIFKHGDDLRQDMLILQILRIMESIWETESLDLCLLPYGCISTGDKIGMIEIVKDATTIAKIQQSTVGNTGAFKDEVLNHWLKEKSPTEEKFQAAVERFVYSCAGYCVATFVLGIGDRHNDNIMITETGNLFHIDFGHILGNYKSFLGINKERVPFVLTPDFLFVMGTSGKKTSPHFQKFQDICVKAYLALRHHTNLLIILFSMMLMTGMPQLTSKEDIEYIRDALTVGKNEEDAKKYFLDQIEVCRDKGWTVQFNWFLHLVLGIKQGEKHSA
Sequence of RAC-beta serine/threonine-protein kinase (Homo sapiens) (P31751 whole entry, looked up, canonical isoform): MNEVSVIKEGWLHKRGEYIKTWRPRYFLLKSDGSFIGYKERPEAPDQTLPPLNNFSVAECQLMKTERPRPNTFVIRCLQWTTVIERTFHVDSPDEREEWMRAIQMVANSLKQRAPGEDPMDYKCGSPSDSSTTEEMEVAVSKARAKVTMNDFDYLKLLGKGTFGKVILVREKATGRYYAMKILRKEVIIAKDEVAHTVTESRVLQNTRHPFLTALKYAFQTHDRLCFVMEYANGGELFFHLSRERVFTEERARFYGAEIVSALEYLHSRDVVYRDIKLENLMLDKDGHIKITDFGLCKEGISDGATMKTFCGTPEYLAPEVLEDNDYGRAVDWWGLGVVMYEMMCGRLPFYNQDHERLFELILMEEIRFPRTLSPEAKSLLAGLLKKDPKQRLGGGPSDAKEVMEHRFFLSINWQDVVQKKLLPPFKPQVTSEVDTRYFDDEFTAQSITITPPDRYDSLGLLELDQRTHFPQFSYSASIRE
Sequence of Mitogen-activated protein kinase 8 (Homo sapiens) (P45983 whole entry): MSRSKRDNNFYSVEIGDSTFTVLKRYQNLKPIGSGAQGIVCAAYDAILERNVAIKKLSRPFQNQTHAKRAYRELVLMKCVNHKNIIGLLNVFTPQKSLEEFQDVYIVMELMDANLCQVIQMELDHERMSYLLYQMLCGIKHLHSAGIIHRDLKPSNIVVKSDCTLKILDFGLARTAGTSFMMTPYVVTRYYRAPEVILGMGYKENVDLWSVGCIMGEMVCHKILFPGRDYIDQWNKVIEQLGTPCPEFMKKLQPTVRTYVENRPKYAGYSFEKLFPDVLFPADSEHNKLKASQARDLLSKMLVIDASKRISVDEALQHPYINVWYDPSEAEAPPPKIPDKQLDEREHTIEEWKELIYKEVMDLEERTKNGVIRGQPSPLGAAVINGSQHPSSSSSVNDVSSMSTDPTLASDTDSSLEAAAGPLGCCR
Sequence of Dual specificity protein kinase CLK1 (Homo sapiens) (P49759 whole entry, looked up): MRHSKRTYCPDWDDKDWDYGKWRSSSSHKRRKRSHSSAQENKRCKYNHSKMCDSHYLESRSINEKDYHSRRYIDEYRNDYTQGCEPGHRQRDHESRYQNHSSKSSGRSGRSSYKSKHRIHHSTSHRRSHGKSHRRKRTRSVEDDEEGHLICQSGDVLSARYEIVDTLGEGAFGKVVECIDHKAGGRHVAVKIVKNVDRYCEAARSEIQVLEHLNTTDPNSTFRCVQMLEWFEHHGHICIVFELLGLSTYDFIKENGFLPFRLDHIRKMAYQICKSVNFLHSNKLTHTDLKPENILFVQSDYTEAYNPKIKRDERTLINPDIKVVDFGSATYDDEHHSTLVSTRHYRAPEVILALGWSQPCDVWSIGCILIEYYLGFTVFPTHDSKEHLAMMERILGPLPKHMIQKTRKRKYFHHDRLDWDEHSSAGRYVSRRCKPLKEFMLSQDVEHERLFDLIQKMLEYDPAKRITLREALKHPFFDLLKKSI
Sequence of Serine/threonine-protein kinase Chk1 (Homo sapiens) (O14757 whole entry): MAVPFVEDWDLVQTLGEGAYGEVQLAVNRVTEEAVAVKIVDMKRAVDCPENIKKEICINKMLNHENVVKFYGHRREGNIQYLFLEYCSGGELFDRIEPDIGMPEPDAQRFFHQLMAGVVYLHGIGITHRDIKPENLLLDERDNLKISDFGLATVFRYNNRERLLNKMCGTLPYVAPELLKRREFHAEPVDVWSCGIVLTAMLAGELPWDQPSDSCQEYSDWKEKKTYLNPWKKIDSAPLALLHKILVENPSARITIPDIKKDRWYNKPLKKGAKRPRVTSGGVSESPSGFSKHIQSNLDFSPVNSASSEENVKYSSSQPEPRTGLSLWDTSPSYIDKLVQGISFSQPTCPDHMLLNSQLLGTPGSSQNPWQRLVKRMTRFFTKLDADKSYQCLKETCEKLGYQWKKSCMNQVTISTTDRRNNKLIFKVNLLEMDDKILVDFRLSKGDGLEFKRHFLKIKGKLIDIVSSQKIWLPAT
Sequence of Serine/threonine-protein kinase Chk1 (O14757 whole entry): as above
Sequence of Serine/threonine-protein kinase MARK1 (Homo sapiens) (Q9P0L2 whole entry, looked up): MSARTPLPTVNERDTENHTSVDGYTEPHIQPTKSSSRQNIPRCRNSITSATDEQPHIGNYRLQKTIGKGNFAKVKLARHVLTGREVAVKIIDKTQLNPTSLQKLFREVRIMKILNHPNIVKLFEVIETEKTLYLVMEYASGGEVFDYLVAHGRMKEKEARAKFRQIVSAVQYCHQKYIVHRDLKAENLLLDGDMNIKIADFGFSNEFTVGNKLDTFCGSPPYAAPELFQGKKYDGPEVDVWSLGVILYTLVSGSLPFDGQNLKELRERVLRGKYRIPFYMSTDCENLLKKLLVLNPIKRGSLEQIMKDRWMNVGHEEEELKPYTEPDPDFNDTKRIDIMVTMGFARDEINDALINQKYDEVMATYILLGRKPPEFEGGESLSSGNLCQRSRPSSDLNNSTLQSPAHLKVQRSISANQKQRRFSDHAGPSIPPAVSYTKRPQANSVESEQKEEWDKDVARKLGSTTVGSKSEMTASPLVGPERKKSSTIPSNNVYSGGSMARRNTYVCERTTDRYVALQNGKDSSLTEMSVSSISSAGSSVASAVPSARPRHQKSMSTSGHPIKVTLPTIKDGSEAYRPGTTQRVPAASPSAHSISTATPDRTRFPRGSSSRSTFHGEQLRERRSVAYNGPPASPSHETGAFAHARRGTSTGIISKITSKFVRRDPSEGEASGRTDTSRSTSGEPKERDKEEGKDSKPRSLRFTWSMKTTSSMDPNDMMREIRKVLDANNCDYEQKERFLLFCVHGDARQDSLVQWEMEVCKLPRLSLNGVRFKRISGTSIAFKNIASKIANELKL
Sequence of Serine/threonine-protein kinase B-raf (Homo sapiens) (P15056 whole entry): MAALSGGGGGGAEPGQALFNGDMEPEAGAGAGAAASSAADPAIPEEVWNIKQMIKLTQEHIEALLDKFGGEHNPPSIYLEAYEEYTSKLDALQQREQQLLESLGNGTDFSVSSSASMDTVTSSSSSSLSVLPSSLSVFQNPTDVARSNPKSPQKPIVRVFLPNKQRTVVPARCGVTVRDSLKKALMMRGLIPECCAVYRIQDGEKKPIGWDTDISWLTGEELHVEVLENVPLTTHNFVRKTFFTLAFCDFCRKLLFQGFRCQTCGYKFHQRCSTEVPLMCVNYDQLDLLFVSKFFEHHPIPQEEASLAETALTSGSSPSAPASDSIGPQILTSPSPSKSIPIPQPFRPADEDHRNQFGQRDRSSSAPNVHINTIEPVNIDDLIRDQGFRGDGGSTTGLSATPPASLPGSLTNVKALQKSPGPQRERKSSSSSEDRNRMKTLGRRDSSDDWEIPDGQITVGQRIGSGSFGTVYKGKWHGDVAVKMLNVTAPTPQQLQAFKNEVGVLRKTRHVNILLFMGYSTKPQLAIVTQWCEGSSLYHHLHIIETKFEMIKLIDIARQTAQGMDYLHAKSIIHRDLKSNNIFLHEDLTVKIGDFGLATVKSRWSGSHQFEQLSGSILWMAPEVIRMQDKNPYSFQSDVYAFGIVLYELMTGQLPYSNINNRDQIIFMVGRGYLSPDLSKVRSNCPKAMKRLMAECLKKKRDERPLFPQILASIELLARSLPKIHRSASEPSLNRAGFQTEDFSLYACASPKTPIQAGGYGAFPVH
Sequence of Dual specificity mitogen-activated protein kinase kinase 2 (Homo sapiens) (P36507 whole entry): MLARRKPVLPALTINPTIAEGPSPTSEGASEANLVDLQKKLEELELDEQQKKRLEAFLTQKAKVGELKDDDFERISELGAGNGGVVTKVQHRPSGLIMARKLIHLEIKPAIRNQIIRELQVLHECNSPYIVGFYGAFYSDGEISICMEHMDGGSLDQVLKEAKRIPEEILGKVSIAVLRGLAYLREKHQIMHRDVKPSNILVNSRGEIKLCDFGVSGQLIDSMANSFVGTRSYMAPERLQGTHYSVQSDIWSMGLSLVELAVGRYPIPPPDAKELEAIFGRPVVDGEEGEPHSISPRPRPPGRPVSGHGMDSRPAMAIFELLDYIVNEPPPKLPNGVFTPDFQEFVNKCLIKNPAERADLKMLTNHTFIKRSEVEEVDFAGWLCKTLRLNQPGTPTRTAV

Structure (SMILES): COc1cc2c(cc1OC)CN(CC(=O)Nc1ccc3c(c1)/C(=C/c1cnc[nH]1)C(=O)N3)CC2
- Activity [1]: 81.32%
- Activity [2]: 12.65%
- inhibition [3]: -6%
- Activity [4]: 17.2%
- inhibition [5]: 37%
- Activity [6]: 69%
- inhibition [7]: 8%
- inhibition [8]: 24%
- Activity [9]: 1.1%
- inhibition [10]: -8%
- GI50 [11]: 16.1 µM
- inhibition (ANGM-CSS [12]): tde
- Activity (ANGM-CSS [13]): Active
- inhibition [14]: 2%
- Activity (ANGM-CSS [15]): Active
- Activity [16]: 4.1%
- inhibition [17]: 25%
- inhibition [18]: 2%
- inhibition [19]: 5%
- inhibition [20]: 27%
- inhibition [21]: 28%
- inhibition [22]: 70%
- Activity [23]: 72.6%
- inhibition [24]: 18%
- growth inhibition (GI) (ANGM-CSS [25]): Dose-dependent effect
- inhibition [26]: 5%
- inhibition [27]: 8%
- inhibition [28]: 61%
- IC50 [29]: 274 nM
- inhibition [30]: 26%
- Activity (ANGM-CSS [31]): Active
- inhibition [32]: 0%
